Emax and EC50 data for 13 compounds are collected here from US10280165B2, “Pyridopyrimidinones and methods of use thereof” (Genentech, Inc., priority 2015, dated 2019).

This assay deals with HEK cells stably transfected with tetracycline inducible hNR1 and hNR2A (Homo sapiens (Human), UniProt Q05586+Q12879). Description: Assay 1: Cell-Based Assay (cytosolic calcium, positive allosteric modulation). The conditions noted are these: for Emax: HEK293, scaled relative to 100 μM L-glutamate maximal response (100%) and 0 μM L-glutamate (0%), with 30 μM glycine and 300 nM L-glutamate, read-out: Max %; for EC50: with 30 μM glycine and 300 nM L-glutamate (EC30), given for compounds reaching maximal response plateaus. How it is done:
Assay 1: Cell-Based Assay
HEK cells stably transfected with tetracycline inducible hNR1 and hNR2A were seeded into clear bottom 384 well poly-D-lysine coated plates (2.5×10^4 cells per well) in Minimum Essential Media (MEM; without L-) including 7.5 μg mL doxycycline and 500 μM (+)-ketamine. The cells were incubated at 37° C. in 5% CO2 for 24 h. For measurement of changes in cytosolic calcium, the seeding media was removed and the cells incubated at 37° C. for 60 min with 1× Becton Dickinson Calcium Assay Kit reagent in Hanks Balanced Salt Solution (HBSS; w/o magnesium, including 1.8 mM calcium, 0.65 mg ml^−1 probenecid and 10 μM (+)-ketamine, pH 7.15) then allowed to equilibrate to rt for 30 min. Concentration-effect curves to Positive Allosteric Modulators (PAMs) were constructed by adding different concentrations (with 30 μM glycine and 300 nM L-glutamate (EC30)) to different wells in HBSS. Compounds were added after a 10 second baseline read and maximum level of relative fluorescence units (RFU) was measured over a 5 min period. Responses were scaled relative to 100 μM L-glutamate maximal response (100%) and 0 μM L-glutamate (0%). EC50 values are provided for compounds reaching maximal response plateaus, and the max % (EC50 (--)) only if no plateau was reached.
A four-parameter Hill equation was fitted to individual concentration-effect curves:
[formula] in which Y, S0, Sinf, AC50, n and c were effect, lower-asymptote, upper-asymptote, mid-point location, slope parameter, and concentration respectively.

HEK cells stably transfected with tetracycline inducible hNR1 and hNR2A, sequence (Q12879 23-1464, other chains not shown): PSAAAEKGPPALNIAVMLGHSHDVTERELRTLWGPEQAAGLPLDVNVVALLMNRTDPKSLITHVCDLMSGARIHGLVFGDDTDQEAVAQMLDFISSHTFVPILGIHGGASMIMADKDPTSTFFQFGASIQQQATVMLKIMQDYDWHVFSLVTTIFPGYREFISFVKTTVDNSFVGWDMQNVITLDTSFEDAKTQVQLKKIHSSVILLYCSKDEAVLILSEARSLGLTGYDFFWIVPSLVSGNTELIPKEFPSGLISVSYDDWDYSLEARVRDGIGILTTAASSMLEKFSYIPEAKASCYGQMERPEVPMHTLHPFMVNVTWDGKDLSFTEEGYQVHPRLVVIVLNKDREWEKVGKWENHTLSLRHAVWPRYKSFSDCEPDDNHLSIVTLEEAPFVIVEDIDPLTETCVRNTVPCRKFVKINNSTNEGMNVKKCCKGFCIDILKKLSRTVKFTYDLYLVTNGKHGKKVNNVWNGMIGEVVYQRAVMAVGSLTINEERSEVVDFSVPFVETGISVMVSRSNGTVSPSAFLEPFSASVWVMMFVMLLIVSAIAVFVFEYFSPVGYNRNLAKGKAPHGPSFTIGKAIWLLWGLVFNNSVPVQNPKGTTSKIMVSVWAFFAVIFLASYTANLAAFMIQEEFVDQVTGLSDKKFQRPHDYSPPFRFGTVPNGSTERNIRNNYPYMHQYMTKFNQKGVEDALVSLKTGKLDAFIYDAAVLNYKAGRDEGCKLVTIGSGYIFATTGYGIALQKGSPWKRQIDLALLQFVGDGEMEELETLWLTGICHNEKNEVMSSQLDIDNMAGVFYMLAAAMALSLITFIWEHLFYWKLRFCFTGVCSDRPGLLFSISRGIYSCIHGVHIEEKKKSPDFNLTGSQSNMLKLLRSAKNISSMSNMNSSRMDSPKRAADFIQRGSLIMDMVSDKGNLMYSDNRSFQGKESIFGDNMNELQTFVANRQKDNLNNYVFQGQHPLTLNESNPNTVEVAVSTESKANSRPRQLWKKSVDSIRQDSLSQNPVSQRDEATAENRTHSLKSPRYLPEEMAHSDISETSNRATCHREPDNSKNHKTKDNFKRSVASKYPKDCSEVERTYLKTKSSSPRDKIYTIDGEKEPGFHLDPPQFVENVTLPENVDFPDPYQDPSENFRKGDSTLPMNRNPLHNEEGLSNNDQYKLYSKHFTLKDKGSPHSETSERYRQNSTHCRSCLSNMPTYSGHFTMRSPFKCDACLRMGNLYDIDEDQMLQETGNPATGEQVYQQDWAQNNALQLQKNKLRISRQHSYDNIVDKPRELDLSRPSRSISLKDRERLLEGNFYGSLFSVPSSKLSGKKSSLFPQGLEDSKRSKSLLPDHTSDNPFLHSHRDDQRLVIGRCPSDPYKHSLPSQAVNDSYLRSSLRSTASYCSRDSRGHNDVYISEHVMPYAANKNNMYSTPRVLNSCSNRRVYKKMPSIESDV

Take `CNC(=O)c1c(C)ccc2nc(Cc3cccc(C#N)c3F)c(F)c(=O)n12` [Compound 26, 2-[(3-cyano-2-fluoro-phenyl)methyl]-3-fluoro-N,7-dimethyl-4-oxo-pyrido[1,2-a]pyrimidine-6-carboxamide]: the Emax amounted to 34%.
Usually EC50 stands for the concentration at which the effect is half-maximal. `CNC(=O)c1c(C)ccc2nc(Cn3nc(C(F)(F)F)cc3C3CC3)cc(=O)n12` [Compound 29, 2-[[5-cyclopropyl-3-(trifluoromethyl)pyrazol-1-yl]methyl]-N,7-dimethyl-4-oxo-pyrido[1,2-a]pyrimidine-6-carboxamide]: the Emax is 147% and the 50% effective concentration (EC50) came to 5900 nM.
As to `CCNC(=O)c1c(C)ccc2nc(Cn3ccc(C(F)(F)F)n3)cc(=O)n12` [Compound 28, N-ethyl-7-methyl-4-oxo-2-[[3-(trifluoromethyl)pyrazol-1-yl)methyl]pyrido[1,2-a]pyrimidine-6-carboxamide], the Emax came to 60%.
Consider `N#C[C@@H]1C[C@H]1c1cccc2nc(Cn3nc(C(F)(F)F)cc3Cl)cc(=O)n12` [Compound 40, (1R,2R)-2-[2-[[5-chloro-3-(trifluoromethyl)pyrazol-1-yl]methyl]-4-oxo-pyrido[1,2-a]pyrimidin-6-yl]cyclopropanecarbonitrile], for which the Emax was 148%.
Take `Cc1ccc2nc(Cn3nc(C(F)(F)F)cc3Cl)cc(=O)n2c1[C@@H]1C[C@H]1C#N` [Compound 35, (1R,2R)-2-[2-[[5-chloro-3-(trifluoromethyl)pyrazol-1-yl]methyl]-7-methyl-4-oxo-pyrido[1,2-a]pyrimidin-6-yl]cyclopropanecarbonitrile]: the Emax came out at 132% and the EC50 is 77 nM.
In the same order, the values of `N#CC1CC1c1c(F)ccc2nc(Cn3nc(Cl)cc3C(F)(F)F)cc(=O)n12` (stereo not shown) [Compound 47, 2-[2-[[3-chloro-5-(trifluoromethyl)pyrazol-1-yl]methyl]-7-fluoro-4-oxo-pyrido[1,2-a]pyrimidin-6-yl]cyclopropanecarbonitrile] are 200% and 178 nM.
For the compound `Cc1cc([C@@H]2C[C@H]2C#N)n2c(=O)cc(Cn3nc(C(F)(F)F)cc3Cl)nc2c1` [Compound 38, (1R,2R)-2-(2-[[5-chloro-3-(trifluoromethyl)pyrazol-1-yl]methyl]-8-methyl-4-oxo-pyrido[1,2-a]pyrimidin-6-yl]cyclopropanecarbonitrile], the Emax was 144% and the half-maximal effective concentration (EC50) worked out at 39 nM.
Take `CCN(Cc1cc(=O)n2c(-c3cncnc3)cccc2n1)c1ccc(F)cc1` [Compound 12, 2-[(N-ethyl-4-fluoro-anilino)methyl]-6-pyrimidin-5-yl-pyrido[1,2-a]pyrimidin-4-one]: the Emax came to 161% and the concentration giving a half-maximal response (EC50) turned out to be 6400 nM.
Taken in the same sequence, the figures for `N#C[C@H]1C[C@@H]1c1c(F)ccc2nc(Cn3nc(C(F)(F)F)cc3Cl)cc(=O)n12` [Compound 46, (1S,2S)-2-[2-[[5-chloro-3-(trifluoromethyl)pyrazol-1-yl]methyl]-7-fluoro-4-oxo-pyrido[1,2-a]pyrimidin-6-yl]cyclopropanecarbonitrile] were 107% and 3220 nM.
For `CNC(=O)c1c(C)ccc2nc(Cc3cccc(Cl)c3F)c(F)c(=O)n12` [Compound 31, 2-[(3-chloro-2-fluoro-phenyl)methyl]-3-fluoro-N,7-dimethyl-4-oxo-pyrido[1,2-a]pyrimidine-6-carboxamide], the Emax turned out to be 48%.
`CCOc1c(C)ccc2nc(CN(CC)c3ccc(F)cc3)cc(=O)n12` [Compound 11, 6-ethoxy-2-[(N-ethyl-4-fluoro-anilino)methyl]-7-methyl-pyrido[1,2-a]pyrimidin-4-one]: the Emax was found to be 53%.
Still for that read-out and setting: as for `CCN(Cc1cc(=O)n2c(OC)c(C)ccc2n1)c1ccc(F)cc1` [Compound 10, 2-[(N-ethyl-4-fluoro-anilino)methyl]-6-methoxy-7-methyl-pyrido[1,2-a]pyrimidin-4-one], the figure is 51%; as for `CCNC(=O)c1cc(C)cc2nc(Cn3nc(C(F)(F)F)cc3C3CC3)cc(=O)n12` [Compound 32], 136%.
